Laboratory results published in ChEMBL document CHEMBL1148593, “Matrix metalloproteinase target family landscape: a chemometrical approach to ligand selectivity based on protein binding site analysis” (J Med Chem, 2006).

Assays:
[1] = molecular target: T1, Interstitial collagenase (Homo sapiens) (UniProt P03956); test: Inhibition of MMP1 at 2 uM
T1 sequence (whole entry): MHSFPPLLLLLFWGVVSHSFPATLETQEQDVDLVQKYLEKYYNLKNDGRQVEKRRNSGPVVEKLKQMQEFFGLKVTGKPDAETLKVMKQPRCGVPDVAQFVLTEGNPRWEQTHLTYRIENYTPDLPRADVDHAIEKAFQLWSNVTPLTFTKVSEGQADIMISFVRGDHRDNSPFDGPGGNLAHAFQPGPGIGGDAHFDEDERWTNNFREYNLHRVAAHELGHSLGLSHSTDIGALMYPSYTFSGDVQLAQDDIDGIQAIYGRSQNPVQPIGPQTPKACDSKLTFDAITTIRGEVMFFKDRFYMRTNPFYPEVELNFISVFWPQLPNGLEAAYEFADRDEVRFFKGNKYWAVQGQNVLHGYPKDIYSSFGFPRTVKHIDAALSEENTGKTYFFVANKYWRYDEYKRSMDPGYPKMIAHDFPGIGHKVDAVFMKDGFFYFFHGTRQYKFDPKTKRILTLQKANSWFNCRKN

Stromelysin-3 = molecular target: T2, Stromelysin-3 (Homo sapiens, UniProt P24347); test: Binding affinity to MMP11
T2 sequence (P24347 whole entry): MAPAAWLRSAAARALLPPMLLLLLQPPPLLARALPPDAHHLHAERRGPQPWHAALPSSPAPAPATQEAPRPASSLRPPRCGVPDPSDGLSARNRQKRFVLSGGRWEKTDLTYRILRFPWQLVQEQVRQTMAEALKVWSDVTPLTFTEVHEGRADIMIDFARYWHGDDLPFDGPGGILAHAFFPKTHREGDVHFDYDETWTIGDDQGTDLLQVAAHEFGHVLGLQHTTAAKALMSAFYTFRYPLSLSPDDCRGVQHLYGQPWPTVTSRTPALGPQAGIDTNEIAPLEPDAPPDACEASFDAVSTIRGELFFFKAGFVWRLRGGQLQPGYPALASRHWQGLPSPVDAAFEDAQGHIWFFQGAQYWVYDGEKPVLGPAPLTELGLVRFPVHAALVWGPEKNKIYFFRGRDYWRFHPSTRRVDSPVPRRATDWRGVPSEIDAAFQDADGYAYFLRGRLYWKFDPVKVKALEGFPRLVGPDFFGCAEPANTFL

[2] = molecular target: T3, Matrilysin (Homo sapiens) (UniProt P09237); test: Inhibition of MMP7 at 2 uM
T3 sequence (whole entry): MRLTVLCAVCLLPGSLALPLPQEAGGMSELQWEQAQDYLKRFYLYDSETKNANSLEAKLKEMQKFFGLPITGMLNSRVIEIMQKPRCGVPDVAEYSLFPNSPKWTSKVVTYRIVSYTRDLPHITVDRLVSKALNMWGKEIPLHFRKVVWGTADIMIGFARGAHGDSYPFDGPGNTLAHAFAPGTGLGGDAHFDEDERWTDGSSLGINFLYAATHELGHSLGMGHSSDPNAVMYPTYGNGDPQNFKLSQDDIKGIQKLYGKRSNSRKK

Neutrophil collagenase = Neutrophil collagenase (Homo sapiens, UniProt P22894); test: Binding affinity to MMP8
[3] = molecular target: Matrix metalloproteinase-9 (Homo sapiens, UniProt P14780); test: Binding affinity to MMP9
Stromelysin-1 = Stromelysin-1 (Homo sapiens, UniProt P08254); test: Binding affinity to MMP3
[4] = molecular target: 72 kDa type IV collagenase (Homo sapiens, UniProt P08253); test: Binding affinity to MMP2
Matrilysin = molecular target: T4, Matrilysin (Homo sapiens, UniProt P09237); test: Binding affinity to MMP7
T4 sequence (P09237 whole entry): T3 sequence (whole entry)

Interstitial collagenase = molecular target: T5, Interstitial collagenase (Homo sapiens, UniProt P03956); test: Binding affinity to MMP1
T5 sequence (P03956 whole entry): T1 sequence (whole entry)

Chain of 72 kDa type IV collagenase (P08253 whole entry): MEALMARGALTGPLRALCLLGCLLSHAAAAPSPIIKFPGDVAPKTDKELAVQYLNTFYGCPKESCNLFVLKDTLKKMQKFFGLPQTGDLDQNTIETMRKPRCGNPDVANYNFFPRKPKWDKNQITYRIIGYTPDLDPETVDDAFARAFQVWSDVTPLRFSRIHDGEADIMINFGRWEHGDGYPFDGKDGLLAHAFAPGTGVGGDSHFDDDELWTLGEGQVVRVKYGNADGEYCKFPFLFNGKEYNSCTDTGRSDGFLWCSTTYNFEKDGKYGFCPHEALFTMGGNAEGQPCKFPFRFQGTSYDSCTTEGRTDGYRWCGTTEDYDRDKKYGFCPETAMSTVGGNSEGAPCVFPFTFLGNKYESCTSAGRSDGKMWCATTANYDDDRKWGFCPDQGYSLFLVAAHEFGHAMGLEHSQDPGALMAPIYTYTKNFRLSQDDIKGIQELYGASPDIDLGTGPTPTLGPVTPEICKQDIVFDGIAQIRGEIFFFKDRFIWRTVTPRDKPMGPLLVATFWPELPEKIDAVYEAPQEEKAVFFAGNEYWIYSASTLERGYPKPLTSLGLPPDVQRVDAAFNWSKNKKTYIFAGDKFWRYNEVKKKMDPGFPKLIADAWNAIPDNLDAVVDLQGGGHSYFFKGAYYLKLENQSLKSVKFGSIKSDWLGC
Chain of Stromelysin-1 (P08254 whole entry): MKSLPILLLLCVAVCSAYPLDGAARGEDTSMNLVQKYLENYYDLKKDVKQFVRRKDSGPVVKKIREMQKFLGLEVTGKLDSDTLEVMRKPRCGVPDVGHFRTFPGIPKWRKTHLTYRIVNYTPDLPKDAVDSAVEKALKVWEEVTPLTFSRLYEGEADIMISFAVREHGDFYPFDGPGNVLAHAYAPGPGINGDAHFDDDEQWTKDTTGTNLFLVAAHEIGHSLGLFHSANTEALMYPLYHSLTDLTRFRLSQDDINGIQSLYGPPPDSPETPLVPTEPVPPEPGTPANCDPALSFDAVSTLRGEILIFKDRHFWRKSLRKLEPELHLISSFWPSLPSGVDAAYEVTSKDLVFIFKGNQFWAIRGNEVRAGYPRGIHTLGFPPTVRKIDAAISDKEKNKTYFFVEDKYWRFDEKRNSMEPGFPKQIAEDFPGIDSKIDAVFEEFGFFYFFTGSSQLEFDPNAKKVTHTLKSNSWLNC
Chain of Neutrophil collagenase (P22894 whole entry): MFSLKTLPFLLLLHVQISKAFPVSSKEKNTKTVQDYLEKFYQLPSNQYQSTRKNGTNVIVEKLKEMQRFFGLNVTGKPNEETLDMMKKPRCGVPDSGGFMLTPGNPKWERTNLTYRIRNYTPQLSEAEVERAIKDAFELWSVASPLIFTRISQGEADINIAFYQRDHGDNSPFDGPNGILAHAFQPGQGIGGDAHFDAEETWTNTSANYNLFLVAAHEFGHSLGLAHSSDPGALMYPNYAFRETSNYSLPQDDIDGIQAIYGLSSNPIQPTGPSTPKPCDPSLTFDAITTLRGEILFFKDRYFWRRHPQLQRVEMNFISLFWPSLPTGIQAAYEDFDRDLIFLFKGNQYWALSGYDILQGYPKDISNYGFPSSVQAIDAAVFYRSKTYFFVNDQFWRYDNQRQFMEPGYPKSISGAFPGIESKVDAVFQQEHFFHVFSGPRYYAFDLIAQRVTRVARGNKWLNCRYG
Chain of Matrix metalloproteinase-9 (P14780 whole entry): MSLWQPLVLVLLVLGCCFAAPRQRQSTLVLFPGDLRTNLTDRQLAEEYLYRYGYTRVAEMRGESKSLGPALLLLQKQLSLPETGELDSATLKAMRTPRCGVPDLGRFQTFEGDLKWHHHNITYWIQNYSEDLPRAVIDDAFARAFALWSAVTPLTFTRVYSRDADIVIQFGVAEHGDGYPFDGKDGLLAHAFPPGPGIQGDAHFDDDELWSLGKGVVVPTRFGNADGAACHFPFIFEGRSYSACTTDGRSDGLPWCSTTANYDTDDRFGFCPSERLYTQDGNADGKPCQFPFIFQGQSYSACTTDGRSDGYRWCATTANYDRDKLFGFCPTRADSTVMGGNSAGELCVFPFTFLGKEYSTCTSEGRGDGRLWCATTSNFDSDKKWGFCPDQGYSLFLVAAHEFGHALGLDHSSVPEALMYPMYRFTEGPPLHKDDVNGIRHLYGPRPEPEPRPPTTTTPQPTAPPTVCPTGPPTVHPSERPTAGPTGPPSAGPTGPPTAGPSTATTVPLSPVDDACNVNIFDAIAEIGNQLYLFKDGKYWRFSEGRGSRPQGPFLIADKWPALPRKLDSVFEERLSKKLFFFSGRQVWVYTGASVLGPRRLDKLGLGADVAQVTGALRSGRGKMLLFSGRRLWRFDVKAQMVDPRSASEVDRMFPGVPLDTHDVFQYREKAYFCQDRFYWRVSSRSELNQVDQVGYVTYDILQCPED

| Structure (SMILES) | IC50 (Neutrophil collagenase) | IC50 (Stromelysin-1) | IC50 (Matrilysin) | IC50 [4] | IC50 (Interstitial collagenase) | also measured |
| --- | --- | --- | --- | --- | --- | --- |
| NC(=O)C(Cc1c[nH]c2ccccc12)NC(=O)C(CCCc1ccccc1)CP(=O)(O)C(Cc1ccccc1)NC(=O)OCc1ccccc1 (stereo not given) | 2.5 nM |  |  |  |  | inhibition [1]: 23%; Ki (Stromelysin-3): 5 nM; inhibition [2]: 8% |
| CNC(=O)C1CCCCNC(=O)CCC(C(=O)O)NC(CCc2ccccc2)C(=O)N1 (stereo not given) |  |  |  |  |  | Ki [3]: 6600 nM; Ki (Stromelysin-1): 2900 nM; Ki [4]: 8100 nM; Ki (Neutrophil collagenase): 17 nM |
| CC(C)CC(C(=O)N[C@H]1CCCCCCCCCCNC1=O)[C@H](O)C(=O)NO (stereo not given in full) | 20 nM | 500 nM | 200 nM | 20 nM | 30 nM |  |
| O=C(O)C1Cc2ccccc2CN1S(=O)(=O)CCc1ccc(-c2ccc(Cl)cc2)cc1 (stereo not given) | 10 nM |  |  |  | > 10000 nM |  |
| O=C(Nc1ccc(S(=O)(=O)C[C@@H](Cc2c[nH]c3ccccc23)C(=O)O)cc1)c1ccc(Br)cc1 |  | > 1000 nM | > 1000 nM | 2.6 nM | > 1000 nM | IC50 [3]: 2.7 nM |
